The source of these data is PMC9268448, “Synthesis of 4,5-Dihydro-1H-[1,2]dithiolo[3,4-c]quinoline-1-thione Derivatives and Their Application as Protein Kinase Inhibitors” (Molecules, 2022).

One may read the inhibition as the relative decrease from the control value, in per cent. The term melting point denotes the temperature of the solid-liquid transition. One may read the IC50 as the concentration that inhibits the measured activity by half. Read a low IC50 as greater potency in that assay.

The target of series [1] is T1, NPM1-ALK (Homo sapiens, UniProt Q9UM73).
T1 construct: NPM1 (nucleophosmin, P06748) fusion partner
T1 sequence (Q9UM73 whole entry, looked up, the tested form may be a part): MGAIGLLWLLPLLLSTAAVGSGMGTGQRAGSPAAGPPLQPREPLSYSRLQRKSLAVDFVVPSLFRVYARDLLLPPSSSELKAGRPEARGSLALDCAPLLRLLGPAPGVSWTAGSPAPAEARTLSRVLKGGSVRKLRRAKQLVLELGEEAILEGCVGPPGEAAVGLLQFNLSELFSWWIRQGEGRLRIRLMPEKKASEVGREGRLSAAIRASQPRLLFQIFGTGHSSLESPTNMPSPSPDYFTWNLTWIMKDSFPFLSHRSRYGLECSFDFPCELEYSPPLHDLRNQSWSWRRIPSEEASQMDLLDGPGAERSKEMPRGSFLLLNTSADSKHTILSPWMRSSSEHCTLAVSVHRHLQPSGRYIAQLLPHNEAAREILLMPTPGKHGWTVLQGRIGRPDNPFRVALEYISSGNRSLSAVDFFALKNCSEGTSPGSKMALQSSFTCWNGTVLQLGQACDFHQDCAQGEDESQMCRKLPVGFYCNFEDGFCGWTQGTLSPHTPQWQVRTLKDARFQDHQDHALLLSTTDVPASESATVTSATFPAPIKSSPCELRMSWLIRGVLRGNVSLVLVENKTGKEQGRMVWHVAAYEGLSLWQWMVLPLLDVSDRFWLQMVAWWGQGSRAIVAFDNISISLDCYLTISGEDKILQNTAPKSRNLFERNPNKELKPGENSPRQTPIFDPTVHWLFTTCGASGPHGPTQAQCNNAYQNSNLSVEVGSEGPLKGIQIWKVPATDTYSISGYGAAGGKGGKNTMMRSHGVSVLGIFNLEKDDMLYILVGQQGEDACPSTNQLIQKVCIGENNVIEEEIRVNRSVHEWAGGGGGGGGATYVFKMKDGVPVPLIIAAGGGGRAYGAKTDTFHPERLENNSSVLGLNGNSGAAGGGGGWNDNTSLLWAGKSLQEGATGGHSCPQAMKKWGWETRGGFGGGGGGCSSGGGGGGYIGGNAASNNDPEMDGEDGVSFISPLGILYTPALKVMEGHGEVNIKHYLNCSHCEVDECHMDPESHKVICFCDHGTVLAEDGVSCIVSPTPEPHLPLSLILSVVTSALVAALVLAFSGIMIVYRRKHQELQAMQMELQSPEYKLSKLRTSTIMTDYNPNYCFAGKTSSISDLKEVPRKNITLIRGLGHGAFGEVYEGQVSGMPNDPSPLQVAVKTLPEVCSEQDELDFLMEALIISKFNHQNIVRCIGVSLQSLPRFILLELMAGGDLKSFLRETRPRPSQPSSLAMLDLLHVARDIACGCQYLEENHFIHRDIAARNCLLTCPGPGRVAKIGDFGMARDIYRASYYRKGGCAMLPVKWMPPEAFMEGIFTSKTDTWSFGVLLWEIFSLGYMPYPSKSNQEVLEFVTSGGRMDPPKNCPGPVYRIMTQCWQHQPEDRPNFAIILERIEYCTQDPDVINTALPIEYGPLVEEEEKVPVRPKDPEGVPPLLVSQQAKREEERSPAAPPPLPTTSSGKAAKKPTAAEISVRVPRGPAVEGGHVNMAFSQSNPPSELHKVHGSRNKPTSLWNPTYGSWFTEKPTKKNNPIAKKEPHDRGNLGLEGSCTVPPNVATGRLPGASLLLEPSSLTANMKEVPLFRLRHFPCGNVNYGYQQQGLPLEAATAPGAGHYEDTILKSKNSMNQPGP
Kind of series: Kinase inhibition ELISA, NPM1-ALK. In kind it is biochemical. Conditions: 10 μM test compound, 150 μM ATP. As for the experimental part:
(§1) Study of inhibitory activity. […] The enzymatic reaction was stopped with a buffer containing 20 mM HEPES (Sigma, H4034), pH 7.5, and 150 mM EDTA (Sigma, E5513). […] Incubation was carried out for 1 h at room temperature. […] After completion of each incubation step (60 min at room temperature (~20 °C) and continuous stirring), the plates were washed three times from unbound antibody molecules with a PBS solution with Tween-20 and 100 μL of substrate (3.3′,5.5′-tetramethylbenzidine (TMB) dihydrochloride, Sigma, T8768) prepared according to the manufacturer’s instructions. Before measuring the optical density, the reaction was stopped using 0.5 M Н2SO4. The optical density of the solution was determined at λ = 450 nm using a tablet spectrophotometer (TECAN Safire). The data obtained were processed and imported into the HTSCalc program.
(§2) The data were analyzed using GraphPad Prism software (v. 3.1).

Series [2] concerns the target T2, JAK3 (Homo sapiens, UniProt P52333).
T2 sequence (P52333 1-1124): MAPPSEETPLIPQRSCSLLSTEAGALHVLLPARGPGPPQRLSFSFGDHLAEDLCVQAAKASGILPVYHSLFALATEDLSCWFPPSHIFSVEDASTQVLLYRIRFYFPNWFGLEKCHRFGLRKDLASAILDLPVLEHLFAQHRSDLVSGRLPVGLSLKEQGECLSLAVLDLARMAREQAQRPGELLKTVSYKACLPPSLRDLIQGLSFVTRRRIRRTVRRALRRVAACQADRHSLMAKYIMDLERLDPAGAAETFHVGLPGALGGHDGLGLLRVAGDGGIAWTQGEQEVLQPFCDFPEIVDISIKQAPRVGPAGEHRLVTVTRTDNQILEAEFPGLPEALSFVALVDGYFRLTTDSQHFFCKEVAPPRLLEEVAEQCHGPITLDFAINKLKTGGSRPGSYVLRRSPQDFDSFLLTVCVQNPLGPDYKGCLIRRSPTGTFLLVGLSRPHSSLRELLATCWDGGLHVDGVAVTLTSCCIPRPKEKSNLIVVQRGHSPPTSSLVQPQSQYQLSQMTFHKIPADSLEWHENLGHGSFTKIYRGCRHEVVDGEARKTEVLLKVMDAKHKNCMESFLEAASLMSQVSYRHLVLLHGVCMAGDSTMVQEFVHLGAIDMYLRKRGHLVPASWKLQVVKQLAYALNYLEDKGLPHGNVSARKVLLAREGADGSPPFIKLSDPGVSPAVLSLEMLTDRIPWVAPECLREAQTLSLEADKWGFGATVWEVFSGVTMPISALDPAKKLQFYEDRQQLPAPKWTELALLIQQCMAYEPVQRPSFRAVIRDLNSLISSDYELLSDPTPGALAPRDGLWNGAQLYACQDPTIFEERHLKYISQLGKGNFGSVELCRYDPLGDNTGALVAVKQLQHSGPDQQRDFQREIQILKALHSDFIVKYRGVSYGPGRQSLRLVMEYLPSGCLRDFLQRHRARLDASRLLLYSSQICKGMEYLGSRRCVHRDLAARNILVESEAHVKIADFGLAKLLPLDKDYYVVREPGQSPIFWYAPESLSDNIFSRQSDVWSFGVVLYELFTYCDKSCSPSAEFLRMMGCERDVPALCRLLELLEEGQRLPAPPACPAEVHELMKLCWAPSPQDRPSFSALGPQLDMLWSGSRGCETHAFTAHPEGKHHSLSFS
Nature of the series: Kinase inhibition ELISA, JAK3. The class given is biochemical. Conditions: for inhibition at 10 µM: 10 μM test compound, 150 μM ATP. How it is done: (§3) Study of inhibitory activity. The kinase activity was determined by enzyme-linked immunosorbent assay (ELISA) in polypropylene plates (Costar, 3363) in reaction buffer (20 mM HEPES, pH 7.5, 15 mM MgCl2, 2 mM DTT, 0.2 mM Na3VO4, 0.005% Triton X-100) for 60 min at 30 °C with vigorous stirring. The final concentration of the reaction components: 0.05 μg mL^–1 of the corresponding kinase, 5 nM Histon H3 biotinylated substrate (1–21) (Anaspec, 61702), 150 μM ATP (Sigma, A6419), 10 μM test compound, 5% DMSO. The enzymatic reaction was stopped with a buffer containing 20 mM HEPES (Sigma, H4034), pH 7.5, and 150 mM EDTA (Sigma, E5513). Further, to detect the phosphorylated substrate, the reaction mixture was transferred to pre-prepared plates (Nunc, 468667) coated with neutravidin (1 ng per well; Pierce, 31000) and treated with bovine serum albumin (BSA) to block non-specific binding sites. Incubation was carried out for 1 h at room temperature. After washing the plates three times with phosphate buffer saline (PBS, pH 7.4) with Tween-20, they were incubated sequentially with anti-phospho-Histon H3 antibodies (0.3 ng μL^–1; Millipore, 04-746) and with specific antibodies conjugated with an enzyme-label (peroxidase) Anti-rabbit IgG, HRP-linked Antibody (titer 1/5000; Cell Signaling, 7074). After completion of each incubation step (60 min at room temperature (~20 °C) and continuous stirring), the plates were washed three times from unbound antibody molecules with a PBS solution with Tween-20 and 100 μL of substrate (3.3′,5.5′-tetramethylbenzidine (TMB) dihydrochloride, Sigma, T8768) prepared according to the manufacturer’s instructions. Before measuring the optical density, the reaction was stopped using 0.5 M Н2SO4. The optical density of the solution was determined at λ = 450 nm using a tablet spectrophotometer (TECAN Safire). The data obtained were processed and imported into the HTSCalc program.
(§4) For compounds 2a–c,q, the IC50 value (μmol L^–1) was calculated from ten concentration points (in triplicate dilution) obtained twice. The data were analyzed using GraphPad Prism software (v. 3.1).
Background: An ELISA detects its analyte on a solid surface through an enzyme-linked reagent.

Series [3] is described as follows: Solubility in DMSO (noted during NMR). The class given is physicochemical. The conditions noted are these: in words; NMR sample in DMSO. As for the experimental part: The signal for the carbon atom of the imino group at 166.6 ppm was detected in the spectrum of the arylimino derivative 2q. In the mass spectra of compounds 2h, 2i–n, and 2q, peaks of protonated molecular ions, consistent with the structure of these compounds, were observed.

Series [4] has as its target cRAF[Y340D][Y341D] (Homo sapiens, UniProt P04049, Y340D/Y341D). Kind of series: Kinase inhibition ELISA, cRAF[Y340D][Y341D]. Conditions: for inhibition at 10 µM: 10 μM test compound, 150 μM ATP. In kind it is biochemical. How it is done: as §1, §2
Series [5] has as its target EGFR[L858R][T790] (Homo sapiens, UniProt P00533, L858R/T790M). Nature of the series: Kinase inhibition ELISA, EGFR[L858R][T790]. In kind it is biochemical. Conditions: 10 μM test compound, 150 μM ATP. How it is done: as §3
The target of series [6] is JAK2 (Homo sapiens, UniProt O60674). Nature of the series: Kinase inhibition ELISA, JAK2. The conditions noted are these: 10 μM test compound, 150 μM ATP. The class given is biochemical. How it is done:
as §3

For series [7], the target named is ALK (Homo sapiens, UniProt Q9UM73). Kind of series: Kinase inhibition ELISA, ALK. In kind it is biochemical. Conditions: 10 μM test compound, 150 μM ATP. As for the experimental part: as §3
Sequence of ALK (Q9UM73 19-1620): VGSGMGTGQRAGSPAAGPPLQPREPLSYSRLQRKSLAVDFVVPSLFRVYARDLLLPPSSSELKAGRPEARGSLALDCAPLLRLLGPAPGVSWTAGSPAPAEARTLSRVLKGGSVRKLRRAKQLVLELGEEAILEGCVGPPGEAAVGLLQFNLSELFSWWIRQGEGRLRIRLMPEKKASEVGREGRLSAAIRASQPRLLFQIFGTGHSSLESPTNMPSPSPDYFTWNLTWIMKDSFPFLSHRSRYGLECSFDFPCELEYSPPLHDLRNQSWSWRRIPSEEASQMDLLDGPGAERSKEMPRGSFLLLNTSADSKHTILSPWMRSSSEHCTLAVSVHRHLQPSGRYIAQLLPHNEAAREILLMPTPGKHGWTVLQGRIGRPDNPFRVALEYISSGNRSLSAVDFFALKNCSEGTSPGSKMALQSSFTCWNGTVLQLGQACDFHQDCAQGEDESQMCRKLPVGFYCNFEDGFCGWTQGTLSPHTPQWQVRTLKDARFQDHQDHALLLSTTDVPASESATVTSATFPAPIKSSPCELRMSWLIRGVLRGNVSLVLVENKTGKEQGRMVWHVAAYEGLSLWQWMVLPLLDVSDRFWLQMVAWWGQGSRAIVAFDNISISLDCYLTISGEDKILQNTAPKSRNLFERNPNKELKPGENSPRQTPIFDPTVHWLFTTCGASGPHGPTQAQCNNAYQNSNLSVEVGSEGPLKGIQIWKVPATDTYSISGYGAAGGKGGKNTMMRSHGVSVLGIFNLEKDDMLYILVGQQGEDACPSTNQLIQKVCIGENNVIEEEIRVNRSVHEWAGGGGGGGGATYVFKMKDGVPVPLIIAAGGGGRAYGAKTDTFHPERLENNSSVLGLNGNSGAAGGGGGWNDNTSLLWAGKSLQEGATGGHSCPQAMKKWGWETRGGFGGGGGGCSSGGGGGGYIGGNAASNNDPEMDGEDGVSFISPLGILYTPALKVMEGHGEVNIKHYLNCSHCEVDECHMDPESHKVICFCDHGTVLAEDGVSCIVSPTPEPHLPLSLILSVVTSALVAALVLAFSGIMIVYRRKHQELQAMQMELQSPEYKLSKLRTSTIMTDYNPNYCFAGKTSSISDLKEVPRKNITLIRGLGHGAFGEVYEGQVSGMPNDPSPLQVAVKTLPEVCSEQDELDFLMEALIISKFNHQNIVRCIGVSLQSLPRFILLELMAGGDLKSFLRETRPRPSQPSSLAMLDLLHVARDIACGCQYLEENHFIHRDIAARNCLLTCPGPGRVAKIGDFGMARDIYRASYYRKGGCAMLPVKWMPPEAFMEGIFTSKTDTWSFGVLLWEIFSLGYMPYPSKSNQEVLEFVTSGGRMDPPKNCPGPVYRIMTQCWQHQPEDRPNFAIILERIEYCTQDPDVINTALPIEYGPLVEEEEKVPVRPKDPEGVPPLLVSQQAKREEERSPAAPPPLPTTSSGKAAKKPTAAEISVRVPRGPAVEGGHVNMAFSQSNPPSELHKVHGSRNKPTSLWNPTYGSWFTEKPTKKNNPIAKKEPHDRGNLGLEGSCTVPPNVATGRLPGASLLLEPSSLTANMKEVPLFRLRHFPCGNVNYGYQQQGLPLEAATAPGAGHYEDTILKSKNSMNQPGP
Series [8] concerns protein kinases NPM1-ALK, ALK, EGFR[L858R][T790], cRAF[Y340D][Y341D], JAK2, and JAK3. Kind of series: Kinase inhibition ELISA, summary over the studied protein kinases. Conditions: primary screening, 10 μM test compound. The class given is biochemical, human. As for the experimental part:
Study of inhibitory activity. The kinase activity was determined by enzyme-linked immunosorbent assay (ELISA) in polypropylene plates (Costar, 3363) in reaction buffer (20 mM HEPES, pH 7.5, 15 mM MgCl2, 2 mM DTT, 0.2 mM Na3VO4, 0.005% Triton X-100) for 60 min at 30 °C with vigorous stirring. The final concentration of the reaction components: 0.05 μg mL^–1 of the corresponding kinase, 5 nM Histon H3 biotinylated substrate (1–21) (Anaspec, 61702), 150 μM ATP (Sigma, A6419), 10 μM test compound, 5% DMSO. The enzymatic reaction was stopped with a buffer containing 20 mM HEPES (Sigma, H4034), pH 7.5, and 150 mM EDTA (Sigma, E5513). Further, to detect the phosphorylated substrate, the reaction mixture was transferred to pre-prepared plates (Nunc, 468667) coated with neutravidin (1 ng per well; Pierce, 31000) and treated with bovine serum albumin (BSA) to block non-specific binding sites. Incubation was carried out for 1 h at room temperature. […] The optical density of the solution was determined at λ = 450 nm using a tablet spectrophotometer (TECAN Safire). […]
as §4

A value given as a limit tells only on which side of the number the result lay.

Sequence of EGFR[L858R][T790] (P00533 669-1210 T790M/L858R limits assumed): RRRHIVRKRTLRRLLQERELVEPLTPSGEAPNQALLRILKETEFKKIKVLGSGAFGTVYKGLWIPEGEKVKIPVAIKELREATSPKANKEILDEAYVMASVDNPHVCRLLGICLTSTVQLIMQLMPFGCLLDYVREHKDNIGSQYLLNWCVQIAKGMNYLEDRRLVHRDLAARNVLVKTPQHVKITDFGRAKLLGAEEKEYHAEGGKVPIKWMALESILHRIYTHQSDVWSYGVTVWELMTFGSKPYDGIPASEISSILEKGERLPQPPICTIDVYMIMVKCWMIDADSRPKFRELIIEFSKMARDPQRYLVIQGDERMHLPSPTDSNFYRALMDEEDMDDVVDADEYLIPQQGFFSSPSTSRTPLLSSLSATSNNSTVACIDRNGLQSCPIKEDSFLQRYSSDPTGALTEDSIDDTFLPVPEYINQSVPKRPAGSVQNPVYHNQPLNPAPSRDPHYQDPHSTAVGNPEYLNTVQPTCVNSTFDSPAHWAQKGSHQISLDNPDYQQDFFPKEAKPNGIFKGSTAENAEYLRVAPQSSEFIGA
Sequence of JAK2 (O60674 whole entry): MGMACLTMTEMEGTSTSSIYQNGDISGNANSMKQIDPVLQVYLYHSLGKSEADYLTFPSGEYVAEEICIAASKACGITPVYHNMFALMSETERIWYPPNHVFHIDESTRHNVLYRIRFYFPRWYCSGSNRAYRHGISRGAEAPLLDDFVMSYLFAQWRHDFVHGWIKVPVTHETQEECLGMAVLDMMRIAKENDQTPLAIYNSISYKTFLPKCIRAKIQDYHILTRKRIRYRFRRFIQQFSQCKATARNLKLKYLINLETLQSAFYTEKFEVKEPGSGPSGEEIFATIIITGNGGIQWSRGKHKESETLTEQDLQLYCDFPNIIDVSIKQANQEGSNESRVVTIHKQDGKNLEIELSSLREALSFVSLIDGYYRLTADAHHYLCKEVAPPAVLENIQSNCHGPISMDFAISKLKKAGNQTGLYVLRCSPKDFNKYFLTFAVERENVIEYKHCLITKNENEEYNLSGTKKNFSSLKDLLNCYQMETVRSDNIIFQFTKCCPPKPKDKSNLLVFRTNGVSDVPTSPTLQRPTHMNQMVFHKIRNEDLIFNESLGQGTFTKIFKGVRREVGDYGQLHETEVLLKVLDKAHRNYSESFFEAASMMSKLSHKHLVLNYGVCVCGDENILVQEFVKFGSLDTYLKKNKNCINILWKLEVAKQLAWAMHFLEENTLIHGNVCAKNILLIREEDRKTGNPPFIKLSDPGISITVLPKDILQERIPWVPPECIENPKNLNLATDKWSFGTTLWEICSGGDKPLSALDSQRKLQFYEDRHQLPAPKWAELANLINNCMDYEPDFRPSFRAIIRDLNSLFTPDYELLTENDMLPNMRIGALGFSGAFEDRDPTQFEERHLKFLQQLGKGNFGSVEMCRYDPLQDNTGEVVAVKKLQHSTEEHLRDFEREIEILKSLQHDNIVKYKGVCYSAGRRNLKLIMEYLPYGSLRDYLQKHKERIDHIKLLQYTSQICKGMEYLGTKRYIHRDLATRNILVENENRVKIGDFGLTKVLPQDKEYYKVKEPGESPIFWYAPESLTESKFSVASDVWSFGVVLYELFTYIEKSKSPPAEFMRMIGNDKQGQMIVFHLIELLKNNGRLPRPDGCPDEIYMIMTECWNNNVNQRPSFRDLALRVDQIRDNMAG

Take `CC1(C)c2ssc(=S)c2-c2cc3c(c4c2N1C(=O)C4=O)OCCO3` [2n, 8,8-Dimethyl-11-thioxo-2,3,8,11-tetrahydro[1,4]dioxino[2,3-g][1,2]dithiolo[3,4-c]pyrrolo[3,2,1-ij]quinoline-5,6-dione]: the melting point was > 260 °C. The inhibition at 10 µM in [1] amounted to 24%. For the same compound, the inhibition at 10 µM in [2] amounted to 52%. For the same compound, the “solubility in DMSO” value in series [3] is listed as “low solubility in DMSO”. In series [4], the inhibition at 10 µM was determined as 13%. Besides, the inhibition at 10 µM in series [5] stood at 5%. The inhibition at 10 µM in series [6] was found to be 47%. The inhibition at 10 µM in series [7] was determined as 19%.
Take `CC1(C)c2ssc(=S)c2-c2cc3c(cc2N1C(=O)c1ccccc1F)OCCO3` [2m, 5-(2-Fluorobenzoyl)-4,4-dimethyl-4,5,8,9-tetrahydro-1H-[1,4]dioxino[2,3-g][1,2]dithiolo[3,4-c]quinoline-1-thione]: the melting point fell in the range of 234 to 235 °C. Besides, the “inhibitory activity against the studied protein kinases (in words)” value in [8] was “very low activity”. In [1], the inhibition at 10 µM came out at 6%. Moreover, in series [2], the inhibition at 10 µM worked out at 23%. The inhibition at 10 µM in series [4] worked out at 35%. Besides, in series [5], the inhibition at 10 µM amounted to 10%. The inhibition at 10 µM in [6] turned out to be 1%. Further, the inhibition at 10 µM in [7] was -4%.
In turn, `COc1cccc(N=c2ssc3c2-c2cccc4c2N(C(=O)C4=O)C3(C)C)c1` [2q, 10-[(3-Methoxyphenyl)imino]-7,7-dimethyl-7,10-dihydro[1,2]dithiolo[3,4-c]pyrrolo[3,2,1-ij]quinoline-4,5-dione] displayed a melting point of 195 to 196 °C. In addition, in series [1], the inhibition at 10 µM stood at 36%. In [2], the inhibition at 10 µM was 99%. Further, the IC50 in [2] (ten concentration points) stood at 460 nM. Further, the inhibition at 10 µM in series [4] worked out at 92%. This compound yielded an IC50 in series [4] (ten concentration points) of 5340 nM. For the same compound, the inhibition at 10 µM in [5] is 71%. The inhibition at 10 µM in series [6] was determined as 9%. Also, the inhibition at 10 µM in [7] stood at 51%.
In turn, `COc1ccc2c(c1)-c1c(ssc1=S)C(C)(C)N2C(=O)CN1C(=O)C2CCCCC2C1=O` (stereo not shown) [2k, 2-[2-(8-Methoxy-4,4-dimethyl-1-thioxo-1,4-dihydro-5H-[1,2]dithiolo[3,4-c]quinolin-5-yl)-2-oxoethyl]hexahydro-1H-isoindole-1,3(2H)-dione] had a melting point of 205 to 206 °C. The “inhibitory activity against the studied protein kinases (in words)” value in series [8] is listed as “very low activity”. Besides, in [1], the inhibition at 10 µM worked out at 27%. The inhibition at 10 µM in series [2] came to 26%. The inhibition at 10 µM in series [4] turned out to be 41%. Further, the inhibition at 10 µM in series [5] is -2%. Moreover, the inhibition at 10 µM in series [6] came out at 3%. In addition, the inhibition at 10 µM in series [7] amounted to 18%.
In turn, `COc1ccc2c(c1)N(C(=O)c1sc3ccccc3c1Cl)C(C)(C)c1ssc(=S)c1-2` [2l, 5-[(3-Chloro-1-benzothien-2-yl)carbonyl]-7-methoxy-4,4-dimethyl-4,5-dihydro-1H-[1,2]dithiolo[3,4-c]quinoline-1-thione] came in with a melting point of 218 to 219 °C. For the same compound, the inhibition at 10 µM in series [1] turned out to be 67%. In series [2], the inhibition at 10 µM stood at 86%. Also, in [4], the inhibition at 10 µM turned out to be 81%. The inhibition at 10 µM in series [5] was 24%. Further, the inhibition at 10 µM in series [6] is 53%. Moreover, the inhibition at 10 µM in series [7] was determined as 75%.
